# Results: a melting point compilation (Tetko et al.; mined from patent text by program, amines drawn as free bases though some values may be those of a salt)
row,melting point,Compound
1,137 to 140 °C,CCC1c2cc3c(cc2C(C=Cc2ccc(NC(C)=O)cc2)=NN(C(C)=O)C1C)OCO3 (stereo not given)
2,149 to 155 °C,COc1ccc2[nH]c(S(=O)Cc3c(N)cc(C)c(OC)c3C)nc2c1 (stereo not given)
3,106 to 107 °C,CCC(CC)c1nn(-c2ccc(Cl)cn2)cc1CCCOc1c(C)cccc1CC(=O)O
4,247 to 249 °C,N#Cc1[nH]c2ccc(C(O)(C(F)(F)F)C(F)(F)F)cc2c1-c1ccccc1
5,235 to 237 °C,CC(C)n1nc(-c2c(Cl)nc(N)nc2-c2ccccc2)ccc1=O
6,193 °C,C=C(C)CC(O)(C(Nc1cccc2nc(C)ncc12)c1ccc(Cl)cc1OC)C(F)(F)F (stereo not given)
7,100 °C,COc1cc(CCc2ccccc2)c(OC)c2c1C(=O)c1ccccc1C2=O
8,147 °C,CC(=O)Nc1ncc(Cc2ccc(Cl)cc2)c(NC(C)=O)n1
9,181 to 182 °C,O=C(O)c1cccc(Br)c1Nc1ccccc1Br
10,148 to 149 °C,O=Cc1c(-c2ccc(Cl)cc2)nsc1-c1ccccc1
11,125 to 128 °C,CCCCC(OC)c1nc2c(N)nc3ccccc3c2n1CC(C)C (stereo not given)
12,89 to 91 °C,Cc1cc(-c2noc(C(F)(F)F)n2)cc(C)c1OCCCc1ccc(Cl)nc1
13,> 260 °C,COc1ccc(OC)c2c1C(=O)c1c-2[nH]c2ccc(O)cc12
14,140 °C,O=C(NC(O)C(F)(F)F)c1ccc(Cl)cc1 (stereo not given)

# The next lines start with the molecule.
row,Compound,melting point
1,N=C(NO)c1ccc(-c2ccc(Br)o2)cc1,116 to 117 °C
2,O=C(O)c1c(Cc2cc3c(cc2Cl)OCO3)c(-c2ccsc2)nn1CC1CCCCC1,250 °C
3,CC(Cn1c2ccccc2c2ccccc21)OS(C)(=O)=O (stereo not given),125 to 127 °C
4,CC(=O)NCc1cc([N+](=O)[O-])ccc1C,133 to 138 °C
5,O=c1[nH]cnc(N=Nc2ccccc2)c1O,244 to 245 °C
6,Cc1ccc(C(=O)CCl)cc1S(N)(=O)=O,166 °C
7,CCOC(=O)c1noc(C(Cc2ccccc2)NC(=O)OC(C)(C)C)n1 (stereo not given),72 to 76 °C
8,CC(=O)NCCSc1c(Cl)cc([N+](=O)[O-])c(C)c1[N+](=O)[O-],152 °C
9,CCCCc1cc(=O)c2ccccc2[nH]1,140 °C
10,CCCN1CC(CO)CC2c3cccc4[nH]cc(c34)CC21 (stereo not given),166 to 168 °C
11,CCN(CC)CCOc1ccc2c(=O)c3ccc(OCCN(CC)CC)cc3oc2c1,70.5 to 72 °C
12,Cc1nn(C2CCCC2C)c(N)c1C(N)=O (stereo not given),124 to 126 °C
13,CN1Cc2c(C(=O)NN)ncn2-c2ccc(F)c(Cl)c2C1=O,308 to 310 °C
14,CC(C)(C)c1ccc(-c2nc(NC(=O)c3cccnc3)sc2-c2ccncc2)cc1,326 to 328 °C
15,O=C(O)C1c2ccccc2OCc2ncccc21 (stereo not given),139 to 140 °C
16,CCOC(=O)CC(=O)Nc1ccc(NC(=O)CC(=O)OCC)c([N+](=O)[O-])c1,96 to 97 °C
17,N#CCCN(N)c1nc2cccc(Cl)c2o1,114 to 115 °C
18,CCCCc1ncc(/C=C(/CO)Cc2cccs2)n1Cc1ccccc1Cl,114 to 115 °C
19,CCCNC(=O)Nc1ccc(-c2cc3[nH]c(=O)[nH]c3nc2C)cc1,> 300 °C
20,CCOC(=O)c1cnc2nn(C)cc2c1O,222 to 224 °C
21,O=C(N(CCCc1ccncc1)Cc1ccccc1)N(CCCc1ccccc1)C1CCCCC1,107 to 112 °C
22,COc1ccc(C(=O)[C@H]2CC=CC[C@H]2C(=O)O)cc1F (relative stereo),185 to 187 °C
23,CCCc1c2c(c([N+](=O)[O-])c3c(=O)cc(C(=O)OCC)oc13)CC(C(=O)OCC)CC2 (stereo not given),164 to 166 °C
24,COC(=O)[C@@H]1C[C@H](OS(=O)(=O)c2ccc(Br)cc2)C(=O)[C@@H]2[C@@]3(C)C[C@@H](c4ccoc4)OC(=O)[C@H]3CC[C@]21C,165 to 166 °C
25,Cc1cc(-c2nc3ccc(CCN4CCCC4)cc3c(=O)[nH]2)cc(C)n1,212 to 213 °C
26,COc1c(C)c2c(c(C(=O)O)c1C/C=C(\C)CCC(=O)O)C(=O)OC2,172 to 174 °C
